Laboratory results as given in ChEMBL document CHEMBL6096687, “In Vivo Stability Improvement of Astatobenzene Derivatives by Introducing Neighboring Substituents” (J Med Chem, 2025).

Legend:
[1] = In vivo stability in male ddY mouse stomach assessed as decrease in radioactivity at 37 kBq, iv measured after 10 to 240 mins by autowell-gamma counter analysis; format: ADME, organism-based; conditions: time 10-240 min
[2] = In vivo stability in male ddY mouse thyroid gland assessed as decrease in radioactivity at 37 kBq, iv measured after 10 to 240 mins by autowell-gamma counter analysis; format: ADME, organism-based; conditions: time 10-240 min
[3] = Stability in mouse plasma assessed as parent compound remaining measured after 1 hrs by TLC analysis; format: ADME, cell-free; conditions: read-out: Stability
[4] = Drug accumulation in male ddY mouse intestine at 37 kBq, iv measured after 10 to 240 mins by autowell-gamma counter analysis; format: ADME, organism-based; conditions: in vivo, time 10-240 min
[5] = Drug accumulation in male ddY mouse kidney at 37 kBq, iv measured after 10 to 240 mins by autowell-gamma counter analysis; format: ADME, organism-based; conditions: in vivo, time 10-240 min
[6] = Drug accumulation in male ddY mouse liver at 37 kBq, iv measured after 10 to 240 mins by autowell-gamma counter analysis; format: ADME, organism-based; conditions: in vivo, time 10-240 min
[7] = In vivo metabolic stability in male ddY mouse urine assessed as intact compound at 37 kBq, iv measured after 1 hrs by RP-HPLC analysis; format: ADME, organism-based; conditions: read-out: Stability
[8] = biological target: Albumin (Homo sapiens, UniProt P02768); test: Binding affinity to human serum albumin assessed as binding constant by ITC analysis; format: ADME; conditions: isolated protein
Sequence of Albumin (P02768 whole entry): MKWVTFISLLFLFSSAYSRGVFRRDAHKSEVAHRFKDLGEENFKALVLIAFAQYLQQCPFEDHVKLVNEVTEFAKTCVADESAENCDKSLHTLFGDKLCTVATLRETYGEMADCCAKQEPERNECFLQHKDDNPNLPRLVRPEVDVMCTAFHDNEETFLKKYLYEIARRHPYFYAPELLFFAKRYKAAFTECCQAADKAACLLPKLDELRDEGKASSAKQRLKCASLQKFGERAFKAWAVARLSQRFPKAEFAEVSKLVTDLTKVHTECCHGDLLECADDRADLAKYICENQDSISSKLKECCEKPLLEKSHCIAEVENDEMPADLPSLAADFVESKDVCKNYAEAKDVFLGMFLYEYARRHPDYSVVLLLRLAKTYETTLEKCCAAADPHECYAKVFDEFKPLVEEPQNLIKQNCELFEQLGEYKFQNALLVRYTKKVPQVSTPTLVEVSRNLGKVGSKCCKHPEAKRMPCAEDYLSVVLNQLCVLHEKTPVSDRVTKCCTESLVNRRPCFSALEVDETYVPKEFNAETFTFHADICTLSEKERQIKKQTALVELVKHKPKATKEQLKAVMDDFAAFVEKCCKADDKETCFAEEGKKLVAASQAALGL

| Compound | Stability [1] | Stability [2] | remaining at 1 h [3] [%] | Drug uptake [4] | Drug uptake [5] | Drug uptake [6] | remaining at 1 h [7] [%] | Kb [8] [M⁻¹] |
| --- | --- | --- | --- | --- | --- | --- | --- | --- |
| COCOCc1cc(C(=O)NCC(=O)O)cc(COCOC)c1[125I] | Stable | Stable | 92.9 | – | – | – | – | – |
| COCOCc1cc(C(=O)NCC(=O)O)cc(COCOC)c1[211At] | Unstable | Unstable | 81.5 | – | – | – | – | – |
| O=C(O)CNC(=O)c1cc(CO)c([125I])c(CO)c1 | Stable | Stable | 95.8 | Active | Active | Active | – | – |
| O=C(O)CNC(=O)c1ccc([125I])cc1 | Stable | Stable | 98.4 | – | Active | – | – | – |
| CN(C)C(=O)c1cc(C(=O)NCC(=O)O)cc(C(=O)N(C)C)c1[125I] | Stable | Stable | 92.7 | Active | Active | Active | 75.7 | – |
| CN(C)C(=O)c1cc(C(=O)NCC(=O)O)ccc1[211At] | Unstable | Unstable | 95.8 | – | – | – | – | – |
| CN(C)C(=O)c1cc(C(=O)NCC(=O)O)cc(C(=O)N(C)C)c1[211At] | Stable | Stable | 92 | Active | – | Active | 86.4 | – |
| O=C(O)CNC(=O)c1cc(CO)c([211At])c(CO)c1 | Unstable | Unstable | 88.7 | – | – | – | – | – |
| O=C(O)CNC(=O)c1ccc([211At])cc1 | Unstable | Unstable | 81.4 | – | – | – | – | – |
| CN(C)C(=O)c1cc(C(=O)NCC(=O)O)ccc1[125I] | – | – | 96.9 | Active | Active | Active | – | – |
| O=C(O)CNC(=O)c1ccccc1 [HIPPURIC ACID] | – | – | – | – | – | – | – | 1000 |
